# Where two headings read alike, the source gives them in different places.
# Legend:
# [1] = test system: M. smegmatis transposon mutant Tn1 (MshC deficient); type: cell-based; details: Tn1, from MIC
# Method: (§1) To test this hypothesis, Tn1, Tn2, and I64 were grown on PBT plates supplemented with increasing amounts of the alkylating agents mBBr, iodoacetamide, and 1-chloro-2,4-dinitrobenzene (CDNB). The alkylating agents were poured into the molten agar.
# [2] = test system: M. smegmatis transposon mutant Tn2 (MshC deficient); type: cell-based; details: Tn2, from MIC
# Method: as §1
# [3] = biological target: M. smegmatis Cys:GlcN-Ins ligase (MshC) (Mycolicibacterium smegmatis, UniProt A0QZY0); test: ATP-dependent Cys:GlcN-Ins ligase assay, substrate kinetics; details: [ATP]=1 mM, [Cys]=100 μM
# Method: (§4) A minor modification of the protocol described by Anderberg et al (supra) was used for routine measurement of ATP-dependent ligase activity. The enzyme activity was assayed in a final volume of 25 μL containing 12.5 μL of the ligase in different dilutions, 50 μM GlcN-Ins, 100 μM Cys (Calbiochem), 1 mM ATP (Sigma), 1 mM MgCl2 (Fisher), 1 mM DTT (Calbiochem), 25 mM N-2-hydroxyethylpiperazine-N′-2-ethanesulfonic acid (HEPES) (Sigma), pH 7.5, and 35 μM each of the protease inhibitors (Sigma) N-α-p-tosyl-L-phenylalanylchloromethyl ketone and N-α-p-tosyl-L-lysinechloromethyl ketone. The mixture was incubated at 37° C. for 30 min. The assay was terminated by addition of 25 μL of 8 mM mBBr in acetonitrile and heating the mixture at 60° C. for 5 min to derivatize the thiols. The derivatization was quenched with the addition of 150 μl of 10 mM methanesulfonic acid and vortexing. HPLC analysis of CySmB-GlcN-Ins and CySmB was carried out by HPLC using a Beckman Ultrasphere IP (250×4.6 mm) analytical column fitted with a Brownley OD-GU 5 μ C-18 cartridge using the following linear gradients: 0 min., 100% A (0.1% TFA in water); 10 min, 100% A; 30 min, 80% A; 33 min, 100% B (7.5% methanol in acetonitrile); 36 min, 100% B; 38 min, 100% A; 60 min, 100% A (reinjection). The flow rate was 1 mL/min. and the fluorescence detection was accomplished with a 370 nm excitation filter and a 418-700 nm emission filter. The Vmax and Km values were calculated by least-squares analysis of Eadie-Hofstee plots with initial rate data using KaleidaGraph 3.5 (Synergy Software).
# [4] = test system: M. smegmatis chemical mutant I64 (MshC deficient); type: cell-based; details: I64, from MIC
# Method: as §1
# M. smegmatis mutant I64 [5] = type: cell-based
# Method: (§2) To determine sensitivity to redox cycling agents, disk assays were performed. Briefly, cells were grown to mid-log phase and a lawn of cells was plated onto PBT or LB plates supplemented with appropriate antibiotics. Various amounts of redox-cycling agents plumbagin, and […] menadione and nitrofurantoin were added to the disk in 10 μl volume and allowed to dry. The disks were placed onto the lawn of cells and incubated 2-3 days.
# M. smegmatis mutant Tn1 [6] = type: cell-based
# Method: as §2
# M. smegmatis mutant Tn2 [7] = type: cell-based
# Method: as §2
# [8] = test system: M. smegmatis mc^2155 (wild type); test: Disk assay, redox cycling agents, zone of inhibition; type: cell-based
# Method: as §2
# N[C@@H](CS)C(=O)O = test: purified protein, by the assay type; details: other: [ATP]=1 mM, [GlcN-Ins]=300 μM, Cys 5-400 μM; pH 7.5
# Method: as §4
# [9] = test system: M. smegmatis parent strain mc^2155; test: Isoniazid MIC by Estrip; type: cell-based; details: Mycolicibacterium smegmatis; mc^2155, Estrip, 2-3 days at 37° C.
# M. smegmatis mutant 49 = details: cited from earlier work
# [10] = test system: M. smegmatis complemented strain 49 (49::pAL0486); test: Isoniazid MIC by Estrip; type: cell-based; details: Mycolicibacterium smegmatis
# [11] = test system: M. smegmatis transposon mutant mshA::Tn5; test: Isoniazid MIC by Estrip; type: cell-based; details: Mycolicibacterium smegmatis
# M. smegmatis mc^2155 = details: mc^2155, plating on antibiotic containing media, found earlier; cited from earlier work
# M. smegmatis mutant I64 [12] = test: Antibiotic sensitivity test (MIC); type: cell-based
# [13] = test system: M. smegmatis complemented mshA::Tn5 (mshA::Tn5 pAL0486); test: Isoniazid MIC by Estrip; type: cell-based; details: Mycolicibacterium smegmatis
# [14] = test system: M. smegmatis chemical mutant 49; test: Isoniazid MIC by Estrip; type: cell-based; details: Mycolicibacterium smegmatis
# M. smegmatis mutant I64 [15] = details: I64, FIG. 6
# Method: (§3) Peroxide sensitivity was determined by incubating cells (2.5×10^7 per ml) at 37° C. in Middlebrook 7H9 medium with 0.4% glucose and 0.05% TWEEN® 80 containing hydrogen peroxide at the desired level for 2 hours with shaking. Cells were diluted in fresh medium and plated on 7H10 agar. Colonies were counted when they achieved a diameter of 1-2 mm, which required 4-5 days for the wild type strain and up to 10 days for MSH-deficient mutant strains.
# [16] = test system: M. smegmatis mc^2155 (wild type)
# Method: as §3
# M. smegmatis mutant Tn1 [17] = test system: M. smegmatis mutant Tn1
# Method: as §3
# M. smegmatis mutant Tn2 [18] = test system: M. smegmatis mutant Tn2
# Method: as §3
# Chain of M. smegmatis Cys:GlcN-Ins ligase (MshC) (A0QZY0 whole entry): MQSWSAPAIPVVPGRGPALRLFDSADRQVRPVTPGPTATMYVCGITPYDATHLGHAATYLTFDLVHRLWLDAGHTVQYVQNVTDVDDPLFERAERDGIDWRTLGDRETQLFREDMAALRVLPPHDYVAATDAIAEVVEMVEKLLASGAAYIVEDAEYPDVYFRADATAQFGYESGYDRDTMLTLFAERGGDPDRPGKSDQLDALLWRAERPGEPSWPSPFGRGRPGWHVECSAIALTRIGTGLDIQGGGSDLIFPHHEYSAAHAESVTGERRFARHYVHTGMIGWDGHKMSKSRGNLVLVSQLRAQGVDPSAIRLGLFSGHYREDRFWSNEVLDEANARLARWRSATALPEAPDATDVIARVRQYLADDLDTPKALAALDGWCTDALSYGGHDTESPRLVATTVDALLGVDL
compound,measurement,setting,value
"O=[N+]([O-])c1ccc(Cl)c([N+](=O)[O-])c1 [CDNB, 1-chloro-2,4-dinitrobenzene]",increase in sensitivity compared to wild type mc^2155,[1],2-3 fold
same,increase in sensitivity compared to wild type mc^2155,[2],2-3 fold
"N[C@H]1[C@@H](OC2[C@H](O)[C@H](O)C(O)[C@H](O)[C@H]2O)O[C@H](CO)[C@@H](O)[C@@H]1O (stereo partly drawn) [GlcN-Ins, 1D-myo-inosityl 2-amino-2-deoxy-α-D-glucopyranoside]",Vmax (GlcN-Ins varied),[3],90 ± 7 nmol/min/mg
same,Km,"[3]; read-out: apparent Km for GlcN-Ins, GlcN-Ins 5-600 μM",72 ± 9 µM
"Cc1c(C)n2c(CBr)c(C)c(=O)n2c1=O [mBBr, monobromobimane]",increase in sensitivity compared to wild type mc^2155,[1],4 fold
same,increase in sensitivity compared to wild type mc^2155,[4],more susceptible
same,increase in sensitivity compared to wild type mc^2155,[2],4 fold
"CC1=CC(=O)c2c(O)cccc2C1=O [Plumbagin, plumbagin]",Zone of Inhibition,"M. smegmatis mutant I64 [5]; I64, 0.005 μmol agent on disk",9.3 ± 0.9 mm
same,Zone of Inhibition,"M. smegmatis mutant I64 [5]; I64, 0.01 μmol agent on disk",13.3 ± 1.9 mm
same,Zone of Inhibition,"M. smegmatis mutant Tn1 [6]; Tn1, 0.005 μmol agent on disk",17.0 ± 0.6 mm
same,Zone of Inhibition,"M. smegmatis mutant Tn1 [6]; Tn1, 0.01 μmol agent on disk",23.0 ± 1.2 mm
same,Zone of Inhibition,"M. smegmatis mutant Tn2 [7]; Tn2, 0.005 μmol agent on disk",15.0 ± 0.0 mm
same,Zone of Inhibition,"M. smegmatis mutant Tn2 [7]; Tn2, 0.01 μmol agent on disk",23.0 ± 1.0 mm
same,Zone of Inhibition,[8]; 0.005 μmol agent on disk,11.0 ± 1.0 mm
same,Zone of Inhibition,[8]; 0.01 μmol agent on disk,13.5 ± 0.5 mm
"O=C1CN(/N=C/c2ccc([N+](=O)[O-])o2)C(=O)N1 [Nitrofurantoin, nitrofurantoin]",Zone of Inhibition,"M. smegmatis mutant I64 [5]; I64, 0.5 μmol agent on disk",5.0 ± 0.6 mm
same,Zone of Inhibition,"M. smegmatis mutant I64 [5]; I64, 1.0 μmol agent on disk",8.7 ± 0.3 mm
same,Zone of Inhibition,"M. smegmatis mutant Tn1 [6]; Tn1, 0.5 μmol agent on disk",10.7 ± 2.6 mm
same,Zone of Inhibition,"M. smegmatis mutant Tn1 [6]; Tn1, 1.0 μmol agent on disk",14.0 ± 2.7 mm
same,Zone of Inhibition,"M. smegmatis mutant Tn2 [7]; Tn2, 1.0 μmol agent on disk",35.0 ± 3.6 mm
same,Zone of Inhibition,[8]; 0.5 μmol agent on disk,4.7 ± 0.3 mm
same,Zone of Inhibition,[8]; 1.0 μmol agent on disk,6.0 ± 0.6 mm
"CN(C)C(=O)/N=N/C(=O)N(C)C [Diamide, diamide]",increase in sensitivity compared to wild type mc^2155,[1],greater than 10 fold
same,increase in sensitivity compared to wild type mc^2155,[4],doubled
same,increase in sensitivity compared to wild type mc^2155,[2],greater than 10 fold
M. smegmatis Cys:GlcN-Ins ligase (MshC) (Mycolicibacterium smegmatis MC2 155),Km,N[C@@H](CS)C(=O)O,40 ± 3 µM
same,Vmax,N[C@@H](CS)C(=O)O,83 ± 3 nmol/min/mg
"NNC(=O)c1ccncc1 [Isoniazid, isoniazid]",MIC,[9],1 µg/mL
same,MIC,"M. smegmatis mutant 49; mutant 49, plating on antibiotic containing media, found earlier",> 50 µg/mL
same,isoniazid concentration to which strain 49 is resistant,M. smegmatis mutant 49; strain 49 (Newton et al. 1999),100 μg isoniazid/ml
same,MIC,[10],28 µg/mL
same,MIC,[11],> 250 µg/mL
same,MIC,M. smegmatis mc^2155,2 µg/mL
same,fold greater resistance than the wild type,M. smegmatis mutant I64 [12],16 fold
same,MIC,[13],2.7 µg/mL
same,MIC,[14],> 250 µg/mL
"CC1=CC(=O)c2ccccc2C1=O [Menadione, menadione]",Zone of Inhibition,"M. smegmatis mutant I64 [5]; I64, 0.1 μmol agent on disk",8.7 ± 0.7 mm
same,Zone of Inhibition,"M. smegmatis mutant I64 [5]; I64, 0.5 μmol agent on disk",26.7 ± 0.9 mm
same,Zone of Inhibition,"M. smegmatis mutant Tn1 [6]; Tn1, 0.1 μmol agent on disk",20.7 ± 3.8 mm
same,Zone of Inhibition,"M. smegmatis mutant Tn1 [6]; Tn1, 0.5 μmol agent on disk",31.3 ± 1.3 mm
same,Zone of Inhibition,"M. smegmatis mutant Tn2 [7]; Tn2, 0.1 μmol agent on disk",15.3 ± 2.0 mm
same,Zone of Inhibition,"M. smegmatis mutant Tn2 [7]; Tn2, 0.5 μmol agent on disk",16.4 ± 1.9 mm
same,Zone of Inhibition,[8]; 0.1 μmol agent on disk,9.7 ± 0.3 mm
same,Zone of Inhibition,[8]; 0.5 μmol agent on disk,19.7 ± 0.9 mm
"NC(=O)CI [Iodoacetamide, iodoacetamide]",increase in sensitivity compared to wild type mc^2155,[1],two-fold
same,increase in sensitivity compared to wild type mc^2155,[4],two-fold
same,increase in sensitivity compared to wild type mc^2155,[2],5 fold
OO [hydrogen peroxide],tolerance to peroxide stress,M. smegmatis mutant I64 [15],intermediate between wild type mc^2155 and the transposon mutants
same,H2O2 concentration at which the strain can survive,[16],10 mM
same,H2O2 concentration the strain is unable to tolerate,"M. smegmatis mutant Tn1 [17]; Tn1, 2 hours at 37° C., FIG. 6",≤ 1 MM
same,times more sensitive to hydrogen peroxide than the wild type strain,"M. smegmatis mutant Tn1 [17]; Tn1, FIG. 6",about 10 times
same,H2O2 concentration the strain is unable to tolerate,"M. smegmatis mutant Tn2 [18]; Tn2, 2 hours at 37° C., FIG. 6",≤ 1 MM
same,times more sensitive to hydrogen peroxide than the wild type strain,"M. smegmatis mutant Tn2 [18]; Tn2, FIG. 6",about 10 times

# From patent US7560229B2, “Methods of use of the enzymes of mycothiol synthesis” (priority 2002, dated 2009)
